For data set [1], the system named is Escherichia coli. The experiment in a line: Antibacterial activity against multidrug resistant Escherichia coli ATCC 25922 assessed as bacterial growth inhibition. In kind it is functional.
For data set [2], the system named is Staphylococcus aureus. Briefly: Antibacterial activity against multidrug resistant Staphylococcus aureus ATCC 25923 assessed as bacterial growth inhibition. Type of data set: functional.
Data set [3] relates to Staphylococcus aureus. The experiment in a line: Antibacterial activity against multidrug resistant Staphylococcus aureus ATCC 43300 assessed as bacterial growth inhibition. Type of data set: functional.
The subject of data set [4] is Escherichia coli. The experiment in a line: Antibacterial activity against multidrug resistant Escherichia coli ATCC 2774 assessed as bacterial growth inhibition. Type of data set: functional.
The test system of data set [5] is Klebsiella pneumoniae. The experiment in a line: Antibacterial activity against multidrug resistant Klebsiella pneumoniae ATCC 2782 assessed as bacterial growth inhibition. Type of data set: functional.
For data set [6], the system named is Klebsiella pneumoniae. The experiment in a line: Antibacterial activity against multidrug resistant Klebsiella pneumoniae ATCC 2146 assessed as bacterial growth inhibition. Type of data set: functional.
The subject of the next data set is Acinetobacter baumannii. Briefly: Antibacterial activity against multidrug resistant Acinetobacter baumannii ATCC 2803 assessed as bacterial growth inhibition. Type of data set: functional.
Data set [7] concerns Klebsiella pneumoniae. Briefly: Synergistic antibacterial activity against multidrug resistant Klebsiella pneumoniae ATCC 2782 assessed as bacterial growth inhibition in presence of ceftazidime. In kind it is functional, organism-based.
For data set [8], the system named is Klebsiella pneumoniae. The experiment in a line: Synergistic antibacterial activity against multidrug resistant Klebsiella pneumoniae ATCC 2146 assessed as bacterial growth inhibition in presence of ceftazidime. Type of data set: functional, organism-based.
The test system of data set [9] is Escherichia coli. The experiment in a line: Synergistic antibacterial activity against multidrug resistant Escherichia coli ATCC 25922 assessed as bacterial growth inhibition in presence of ceftazidime. Type of data set: functional, organism-based.
Data set [10] has as its system Escherichia coli. The experiment in a line: Synergistic antibacterial activity against multidrug resistant Escherichia coli ATCC 2774 assessed as bacterial growth inhibition in presence of ceftazidime. Type of data set: functional, organism-based.
Data set [11] deals with T1, Metallo-beta-lactamase type 2 (Bacillus cereus, UniProt P14488).
T1 sequence (P14488 whole entry): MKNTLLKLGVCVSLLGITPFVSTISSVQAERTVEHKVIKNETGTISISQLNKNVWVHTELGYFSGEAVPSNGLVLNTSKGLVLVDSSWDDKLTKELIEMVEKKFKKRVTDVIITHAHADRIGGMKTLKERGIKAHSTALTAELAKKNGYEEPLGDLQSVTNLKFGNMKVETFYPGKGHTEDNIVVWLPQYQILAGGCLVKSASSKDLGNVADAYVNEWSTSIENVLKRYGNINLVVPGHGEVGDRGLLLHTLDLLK
Briefly: Inhibition of Bacillus cereus beta-lactamase II.

A short description of data set [12]: Hemolytic activity in human RBC assessed as hemolysis at 512 ug/ml. In kind it is toxicity, cell-based, Erythrocyte. The conditions noted are these: red blood cells (RBC), at 512 µg/mL, read-out: Activity.

Structures are written as SMILES. In brackets after ≈: the same amount, converted by molar mass. Activity calls are given as the source filed them. The calls are words filed in the database; no cut-off is given here.

With `NC(=O)[C@@H]1CC[C@@H]2CN1C(=O)N2OS(=O)(=O)O` [AVIBACTAM], the MIC is 8 µg/mL (≈ 30.2 µM) in the data set on Escherichia coli [1]; 256 µg/mL (≈ 965 µM) in the data set on Staphylococcus aureus [2]; over 128 µg/mL with Staphylococcus aureus [3]; 8 µg/mL (≈ 30.2 µM) in the data set on Escherichia coli [4]; 32 µg/mL (≈ 121 µM) with Klebsiella pneumoniae [5]; 8 µg/mL (≈ 30.2 µM) in the data set on Klebsiella pneumoniae [6]. Further, the MIC in the data set on Acinetobacter baumannii was over 128 µg/mL. Also, the result with Klebsiella pneumoniae [7], with Klebsiella pneumoniae [8], in the data set on Escherichia coli [9] and with Escherichia coli [10] was Active. For the same compound, in data set [11], the concentration for half-maximal inhibition (IC50) turned out to be 141 nM. Also, the hemolysis at 512 ug/ml in [12] is 3.87%.
Consider `CC[C@H](C)C(NC(=O)[C@@H]1CC[C@@H]2CN1C(=O)N2OS(=O)(=O)O)C(=O)NNC(=O)c1cn(C2CC2)c2cc(N3CCNCC3)c(F)cc2c1=O` (stereo partly drawn), for which the MIC is 32 µg/mL (≈ 45.3 µM) in the data set with Escherichia coli [1]; over 256 µg/mL in the data set on Staphylococcus aureus [2]; over 128 µg/mL in the data set with Staphylococcus aureus [3]; over 128 µg/mL in the data set on Escherichia coli [4]; over 128 µg/mL in the data set with Klebsiella pneumoniae [5]; over 128 µg/mL with Klebsiella pneumoniae [6]. Further, in the data set with Acinetobacter baumannii, the MIC is over 128 µg/mL.
On to `O=C(O)c1cn(C2CC2)c2cc(N3CCNCC3)c(F)cc2c1=O` [CIPROFLOXACIN], for which the MIC in the data set with Staphylococcus aureus [3] is 0.5 µg/mL (≈ 1.51 µM); with Escherichia coli [4], 128 µg/mL (≈ 386 µM); in the data set on Klebsiella pneumoniae [5], over 128 µg/mL; in the data set with Klebsiella pneumoniae [6], over 128 µg/mL; with Acinetobacter baumannii, over 128 µg/mL.
As for `O=C(CCCNC(=O)[C@@H]1CC[C@@H]2CN1C(=O)N2OS(=O)(=O)O)NNC(=O)c1cn(C2CC2)c2cc(N3CCNCC3)c(F)cc2c1=O`, the MIC in the data set with Escherichia coli [1] was 8 µg/mL (≈ 11.8 µM); in the data set with Staphylococcus aureus [2], over 64 µg/mL; with Staphylococcus aureus [3] it was over 64 µg/mL; in the data set with Escherichia coli [4], over 32 µg/mL; with Klebsiella pneumoniae [5], over 32 µg/mL; with Klebsiella pneumoniae [6] it was over 64 µg/mL. In addition, in the data set with Acinetobacter baumannii, the MIC was over 64 µg/mL.
For the compound `O=C(NNC(=O)[C@H](Cc1ccccc1)NC(=O)[C@@H]1CC[C@@H]2CN1C(=O)N2OS(=O)(=O)O)c1cn(C2CC2)c2cc(N3CCNCC3)c(F)cc2c1=O`, the MIC in the data set with Escherichia coli [1] is 16 µg/mL (≈ 21.6 µM); with Staphylococcus aureus [2], 8 µg/mL (≈ 10.8 µM); in the data set with Staphylococcus aureus [3], over 128 µg/mL; with Escherichia coli [4], over 128 µg/mL; with Klebsiella pneumoniae [5], over 128 µg/mL; in the data set with Klebsiella pneumoniae [6], over 128 µg/mL. The minimum inhibitory concentration (MIC) in the data set on Acinetobacter baumannii was over 128 µg/mL.
For `O=C(NNC(=O)[C@@H]1CC[C@@H]2CN1C(=O)N2OS(=O)(=O)O)c1cn(C2CC2)c2cc(N3CCNCC3)c(F)cc2c1=O`, the minimum inhibitory concentration (MIC) is 16 µg/mL (≈ 27 µM) in the data set on Escherichia coli [1]; 8 µg/mL (≈ 13.5 µM) in the data set with Staphylococcus aureus [2]; 128 µg/mL (≈ 216 µM) in the data set on Staphylococcus aureus [3]; over 128 µg/mL in the data set with Escherichia coli [4]; over 128 µg/mL in the data set on Klebsiella pneumoniae [5]; over 128 µg/mL in the data set with Klebsiella pneumoniae [6]. In the data set on Acinetobacter baumannii, the MIC is over 128 µg/mL. Also, the outcome in the data set on Klebsiella pneumoniae [7], with Klebsiella pneumoniae [8], with Escherichia coli [9] and with Escherichia coli [10] was Active. In data set [11], the IC50 was 1.69 nM. The hemolysis at 512 ug/ml in data set [12] came to 4.27%.
For `O=C(CCCCCNC(=O)[C@@H]1CC[C@@H]2CN1C(=O)N2OS(=O)(=O)O)NNC(=O)c1cn(C2CC2)c2cc(N3CCNCC3)c(F)cc2c1=O`, the MIC is 4 µg/mL (≈ 5.66 µM) in the data set on Escherichia coli [1]; over 64 µg/mL with Staphylococcus aureus [2]; over 64 µg/mL in the data set on Staphylococcus aureus [3]; over 32 µg/mL with Escherichia coli [4]; over 32 µg/mL in the data set on Klebsiella pneumoniae [5]; over 64 µg/mL with Klebsiella pneumoniae [6]. Further, the MIC with Acinetobacter baumannii was over 64 µg/mL.
For `COc1ccc(C[C@H](NC(=O)[C@@H]2CC[C@@H]3CN2C(=O)N3OS(=O)(=O)O)C(=O)NNC(=O)c2cn(C3CC3)c3cc(N4CCNCC4)c(F)cc3c2=O)cc1OC`, the MIC in the data set with Escherichia coli [1] is 32 µg/mL (≈ 40 µM); with Staphylococcus aureus [2] it was over 64 µg/mL; in the data set with Staphylococcus aureus [3] it was over 64 µg/mL; in the data set on Escherichia coli [4], over 64 µg/mL; with Klebsiella pneumoniae [5], over 64 µg/mL; in the data set on Klebsiella pneumoniae [6], over 64 µg/mL. Further, the minimum inhibitory concentration (MIC) in the data set with Acinetobacter baumannii was over 64 µg/mL.
Regarding `O=C(NNC(=O)[C@@H]1CCCN1C(=O)[C@@H]1CC[C@@H]2CN1C(=O)N2OS(=O)(=O)O)c1cn(C2CC2)c2cc(N3CCNCC3)c(F)cc2c1=O`, the MIC in the data set on Escherichia coli [1] is 8 µg/mL (≈ 11.6 µM); in the data set on Staphylococcus aureus [2], 128 µg/mL (≈ 185 µM); in the data set on Staphylococcus aureus [3] it was over 128 µg/mL; in the data set on Escherichia coli [4] it was over 128 µg/mL; in the data set on Klebsiella pneumoniae [5], over 128 µg/mL; in the data set on Klebsiella pneumoniae [6] it was over 128 µg/mL. Further, the MIC in the data set with Acinetobacter baumannii is over 128 µg/mL.
In the case of `O=C(CNC(=O)[C@@H]1CC[C@@H]2CN1C(=O)N2OS(=O)(=O)O)NNC(=O)c1cn(C2CC2)c2cc(N3CCNCC3)c(F)cc2c1=O`, the MIC in the data set on Escherichia coli [1] is 8 µg/mL (≈ 12.3 µM); in the data set with Staphylococcus aureus [2], over 256 µg/mL; with Staphylococcus aureus [3] it was over 128 µg/mL; in the data set with Escherichia coli [4] it was over 128 µg/mL; in the data set with Klebsiella pneumoniae [5] it was over 128 µg/mL; in the data set with Klebsiella pneumoniae [6], over 128 µg/mL. Also, the MIC in the data set on Acinetobacter baumannii was over 128 µg/mL. Also, the outcome in the data set with Klebsiella pneumoniae [7], with Klebsiella pneumoniae [8], with Escherichia coli [9] and in the data set with Escherichia coli [10] was Active. Moreover, the IC50 in data set [11] was determined as 226 nM. Moreover, the hemolysis at 512 ug/ml in data set [12] is 5.74%.
Take `CC(C)(C)OC(=O)N1CCN(c2cc3c(cc2F)c(=O)c(C(=O)NNC(=O)[C@@H]2CC[C@@H]4CN2C(=O)N4OS(=O)(=O)[O-])cn3C2CC2)CC1.CCCC[N+](CCCC)(CCCC)CCCC`: the MIC in the data set on Escherichia coli [1] was over 256 µg/mL; with Staphylococcus aureus [2] it was 8 µg/mL; in the data set on Staphylococcus aureus [3], over 128 µg/mL; in the data set with Escherichia coli [4], over 128 µg/mL; in the data set with Klebsiella pneumoniae [5], over 128 µg/mL; in the data set on Klebsiella pneumoniae [6], over 128 µg/mL. In the data set with Acinetobacter baumannii, the MIC was over 128 µg/mL.
Regarding `C[C@H](NC(=O)[C@@H]1CC[C@@H]2CN1C(=O)N2OS(=O)(=O)O)C(=O)NNC(=O)c1cn(C2CC2)c2cc(N3CCNCC3)c(F)cc2c1=O`, the MIC is 1 µg/mL (≈ 1.5 µM) in the data set on Escherichia coli [1]; 16 µg/mL (≈ 24.1 µM) in the data set on Staphylococcus aureus [2]; 32 µg/mL (≈ 48.1 µM) in the data set on Staphylococcus aureus [3]; over 128 µg/mL in the data set with Escherichia coli [4]; over 128 µg/mL in the data set on Klebsiella pneumoniae [5]; over 128 µg/mL in the data set on Klebsiella pneumoniae [6]. Besides, the minimum inhibitory concentration (MIC) with Acinetobacter baumannii was over 128 µg/mL.
Take `CC(C)[C@H](NC(=O)[C@@H]1CC[C@@H]2CN1C(=O)N2OS(=O)(=O)O)C(=O)NNC(=O)c1cn(C2CC2)c2cc(N3CCNCC3)c(F)cc2c1=O`: the MIC was 16 µg/mL (≈ 23.1 µM) with Escherichia coli [1]; 128 µg/mL (≈ 185 µM) with Staphylococcus aureus [2]; over 128 µg/mL in the data set with Staphylococcus aureus [3]; over 128 µg/mL in the data set on Escherichia coli [4]; over 128 µg/mL with Klebsiella pneumoniae [5]; over 128 µg/mL in the data set with Klebsiella pneumoniae [6]. For the same compound, in the data set on Acinetobacter baumannii, the MIC was over 128 µg/mL. Besides, the outcome in the data set with Klebsiella pneumoniae [7], in the data set on Klebsiella pneumoniae [8], in the data set on Escherichia coli [9] and in the data set with Escherichia coli [10] was Active. This compound came in with an IC50 in data set [11] of 57.4 nM. In addition, in data set [12], the hemolysis at 512 ug/ml was 5.1%.

Source of the values: ChEMBL document CHEMBL5257115, “Synthesis of novel ciprofloxacin-avibactam conjugates for the development of second-generation non-β-lactam-β-lactamase inhibitors” (Bioorg Med Chem Lett, 2023).
